# Data from ChEMBL document CHEMBL1141271, “Laurendecumallenes A-B and laurendecumenynes A-B, halogenated nonterpenoid C(15)-acetogenins from the marine red alga Laurencia decumbens” (J Nat Prod, 2007).
# Test system: A549
# Assay: Cytotoxicity against human A549 cells
# Type: functional, cell-based
row,SMILES,IC50 [mg/L]
1,C#C/C=C\C[C@@H]1O[C@@H]2C[C@H](Br)[C@H](CC)O[C@@H]2C[C@@H]1Cl [LAURENDECUMENYNE B],> 10
2,C#C/C=C\C[C@H]1O[C@@H]2C[C@H](Br)[C@@H](CC)O[C@H]1C[C@H]2OO [LAURENDECUMENYNE A],> 10
3,CC[C@H]1O[C@@H]2C[C@@H](C=C=CBr)O[C@@H]2C[C@@H](O)[C@H](O)C[C@@H]1Br [LAURENDECUMALLENE A],> 10
4,CC[C@@H](Br)[C@H]1C[C@H](O)[C@H](O)C[C@H]2O[C@H](C=C=CBr)C[C@H]2O1 [LAURENDECUMALLENE B],> 10
5,C#C/C=C\C[C@@H]1O[C@@H]2C[C@H](Br)[C@H](CC)O[C@@H]2C[C@@H]1Br,> 10
